The values below come from patent publication US11298363B2, “Triazolobenzazepines as vasopressin V1a receptor antagonists” (RICHTER GEDEON NYRT., priority 2017, dated 2022).

Molecules are shown by their SMILES. Marks after values point to notes of the source that are not given here.

Assay [1] deals with T1, human vasopressin V1a receptor (Homo sapiens, UniProt P37288). In words: Human vasopressin V1a receptor binding assay. Conditions: 1321N1 cell membranes, [3H]vasopressin; read-out: Ki (nM) on hV1a cell line. Summed up: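 Radioligand competition on membranes from cells expressing human V1a receptor; incubation 60 minutes at 27° C., non-specific binding with 1.2×10^−6 M unlabeled (Arg^8)-vasopressin, filtration separation. Ki by Cheng-Prusoff using Scatchard-derived KD, from at least two independent experiments.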

Assay [2] has as its target T1, human vasopressin V1a receptor. Kind of assay: Functional assay on human vasopressin V1a receptor expressing cell line (intracellular Ca2+ fluorescence). The settings on record: 1321N1 cells, (Arg8)-vasopressin at EC80; read-out: IC50 (nM) on hV1a cell line. It counts as cell-based.
The target in assay [3] is human vasopressin V2 receptor (Homo sapiens, UniProt P30518). Kind of assay: Human vasopressin V2 receptor binding assay on 1321N1 cell line. The settings on record: 1321N1 cell line; read-out: Ki on hV2 1321N1 cell line. On the procedure:
Human Vasopressin V2 Receptor Binding Assay Cells and Radioligand
To determine the final affinity value, the results of at least two independent experiments were taken into account.
Non-specific binding values were determined in the presence of an unlabeled 1.2×10^−6 M (Arg^8)-vasopressin. Samples were incubated in a total volume of 0.55 ml for 90 minutes at 27° C. Membrane-bound and free ligands were separated by filtration through a 0.5% polyethyleneimine-impregnated UniFilter® GF/B™. After drying the filter plates, 40 μl Microscint-20 (Packard) scintillation cocktail was added to the samples. Finally, radioactivity was measured using MicroBeta^2 Microplate Counter (Perkin Elmer).
The radioligand displacement ability of a substance is determined in at least two independent experiments. Specific radioligand binding can be defined as the difference between total and non-specific binding in the presence of a saturation amount of the unlabeled ligand or different concentrations of the substance to be tested. The results are given as a percentage of inhibition of the specific binding achieved in the presence of the substance to be tested.
During fitting, the asymptotes are not fixed. The Ki values (inhibition constant) are given with Cheng-Prusoff equation Ki=IC50/[1+(L/KD)] wherein [L] is the radioligand concentration used in the experiment and [KD] is the affinity of the radioactively labelled ligand for the given receptor. The KD is determined beforehand using the Scatchard curve.

The next assay addresses mouse V1a receptor (Mus musculus, UniProt Q62463). In words: Functional V1a in vivo test: inhibition of oxytocin-induced scratching behaviour. The settings on record: mice. On the procedure:
Functional V1a In Vivo Test
Male mice (NMRI, ToxiCoop) weighing 18-40 g were used. Animals were kept at least 5 days after delivery, during housing and measurements they were fed and drink ad libitum. The experiments were permitted by the Local Animal Protection Committee and carried out in accordance with the European Animal Protection Directives (EU Directive 2010/63/EU).
Animal behaviour was measured by an automated behavioral analysis system (LABORAS™). The sensors located below platforms detect the mechanical vibration generated by the movement of animal, and transform into an electrical signal (Quinn et al., J Neurosci Methods 2003, 130:83-92). After analyzing signals, the system analyzes the time spent with the following behavioral parameters: locomotion, immobility, climbing, grooming. The grooming algorithm by definition is able to measure the scratching behavioral response. During the experiment, mice were pretreated with the test substance or vehicle, and after the pretreatment period scratching-inducing compound (s.c. 0.3 mg/kg oxytocin) was administered, and then the animals were individually placed into measuring cages. […] To reduce the exploratory activity, the animals were measured after a 1-hour habituation to the cage. The behavioural parameters were compared to the parallel measured parameters of the control animals.
The behavioural inhibitory effect of the substances was calculated with average values of parallel measured vehicle treated groups and presented as the percentage of inhibition: 0% was expressed as average value of scratching behaviour of vehicle pretreated animals (and phys. saline s.c. pretreated with vehicle), while 100% was expressed as average value of scratching of vehicle pretreated animals that received oxytocin subcutaneously. For statistical analysis one-way analysis of variance (ANOVA) with Tukey post hoc test were used.

T1 sequence (P37288 whole entry): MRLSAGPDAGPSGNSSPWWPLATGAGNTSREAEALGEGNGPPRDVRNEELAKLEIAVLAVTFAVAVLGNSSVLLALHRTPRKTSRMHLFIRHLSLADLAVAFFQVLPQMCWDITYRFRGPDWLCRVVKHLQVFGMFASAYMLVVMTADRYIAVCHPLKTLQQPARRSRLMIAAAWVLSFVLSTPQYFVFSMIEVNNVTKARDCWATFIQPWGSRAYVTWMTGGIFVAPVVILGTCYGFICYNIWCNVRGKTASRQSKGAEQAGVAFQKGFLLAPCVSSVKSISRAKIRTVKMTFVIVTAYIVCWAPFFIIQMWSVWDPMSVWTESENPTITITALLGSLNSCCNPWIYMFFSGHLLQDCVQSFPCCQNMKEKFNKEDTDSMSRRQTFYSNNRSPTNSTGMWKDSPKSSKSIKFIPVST
human vasopressin V2 receptor, sequence (P30518 whole entry): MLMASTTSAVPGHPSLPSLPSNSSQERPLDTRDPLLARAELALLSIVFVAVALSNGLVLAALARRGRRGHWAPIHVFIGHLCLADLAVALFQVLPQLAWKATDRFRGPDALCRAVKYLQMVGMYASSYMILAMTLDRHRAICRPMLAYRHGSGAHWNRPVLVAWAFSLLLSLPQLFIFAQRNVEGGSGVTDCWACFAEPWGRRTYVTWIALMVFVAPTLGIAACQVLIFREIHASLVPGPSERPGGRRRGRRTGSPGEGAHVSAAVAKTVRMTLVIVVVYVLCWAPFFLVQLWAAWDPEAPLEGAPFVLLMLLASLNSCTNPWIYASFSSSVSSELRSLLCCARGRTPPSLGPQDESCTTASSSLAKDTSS
mouse V1a receptor, sequence (Q62463 whole entry): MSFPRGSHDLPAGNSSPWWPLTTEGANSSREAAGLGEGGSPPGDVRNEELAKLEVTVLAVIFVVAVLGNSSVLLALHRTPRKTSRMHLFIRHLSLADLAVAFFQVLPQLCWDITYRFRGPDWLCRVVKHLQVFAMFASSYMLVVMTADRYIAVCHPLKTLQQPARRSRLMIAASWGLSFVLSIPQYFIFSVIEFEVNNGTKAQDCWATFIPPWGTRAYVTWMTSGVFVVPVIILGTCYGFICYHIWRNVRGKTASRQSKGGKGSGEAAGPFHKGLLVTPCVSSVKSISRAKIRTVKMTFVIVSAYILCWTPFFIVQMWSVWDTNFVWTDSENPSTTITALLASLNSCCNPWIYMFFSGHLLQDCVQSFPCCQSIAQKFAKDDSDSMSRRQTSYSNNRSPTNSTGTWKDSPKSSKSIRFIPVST

Consider `N[C@@H]1Cc2cc(Cl)ccc2-n2c(nnc2[C@H]2CC[C@H](Oc3ccccn3)CC2)C1` [Example 8, (5R)-8-chloro-1-[trans-4-(pyridin-2-yloxy)cyclohexyl]-5,6-dihydro-4H-[1,2,4]triazolo[4,3-a][1]benzazepine-5-amine], for which the Ki came out at 1.3 nM in assay [1] and 3050 nM in assay [3]. The IC50 in assay [2] was 6.8 nM. The “inhibition (%) of oxytocin-induced scratching behaviour response” value (“inhibition (%)” for short) at mouse V1a receptor (10 mg/kg p.o. pretreatment) stood at 64%.
For the compound `O=C1Cc2cc(Cl)ccc2-n2c(nnc2[C@H]2CC[C@H](Oc3ccccn3)CC2)C1` [Example 54, 8-chloro-1-[trans-4-(pyrin-2-yloxy)cyclohexyl]-4H-[1,2,4]triazolo[4,3-a][1]benzazepin-5(6H)-one], the Ki in assay [1] turned out to be 0.6 nM; in assay [3], 662 nM. Also, the IC50 in assay [2] turned out to be 1.2 nM. Besides, the “inhibition (%)” value at mouse V1a receptor (10 mg/kg p.o. pretreatment) was found to be 70%.
For `Brc1ccc2c(c1)CC1(Cc3nnc([C@H]4CC[C@H](Oc5ccccn5)CC4)n3-2)OCCO1` [Example 62, 8′-bromo-1′-[trans-4-(pyridin-2-yloxy)cyclohexyl]-4′H,6′H-spiro[1,3-dioxolane-2,5′ [1,2,4]triazolo[4,3-a][1]benzazepine]] the same measures were 0.2 nM, 53 nM, 1.1 nM and 99%.
For `CC(=O)NC1Cc2cc(Cl)ccc2-n2c(nnc2[C@H]2CC[C@H](Oc3ccccn3)CC2)C1` (stereo partly drawn) [Example 9, N-{8-chloro-1-[trans-4-(pyridin-2-yloxy)cyclohexyl]-5,6-dihydro-4H-[1,2,4]triazolo[4,3-a][1]benzazepin-5-yl}acetamide], the Ki was found to be 0.8 nM in assay [1] and 1190 nM in assay [3]. The IC50 in assay [2] was 3 nM. The “inhibition (%)” value against mouse V1a receptor (after i.p. treatment (table title: 10 mg/kg)) was 106* %.
As for `c1ccc(O[C@H]2CC[C@H](c3nnc4n3-c3ccccc3CC3(C4)OCCO3)CC2)nc1` [Example 63, 1′-[trans-4-(pyridin-2-yloxy)cyclohexyl]-4′H,6′H-spiro[1,3-dioxolane-2,5′-[1,2,4]triazolo[4,3-a][1]benzazepine]], the results for the inhibitory constant (Ki) in assay [1] and in assay [3] were 0.3 nM and 575 nM, respectively. Moreover, the IC50 in assay [2] came out at 1.4 nM. Further, the “inhibition (%)” value at mouse V1a receptor (10 mg/kg p.o. pretreatment) was determined as 49%.
For `OC1Cc2cc(Cl)ccc2-n2c(nnc2[C@H]2CC[C@H](Oc3ccccn3)CC2)C1` (stereo partly drawn) [Example 55, 8-chloro-1-[trans-4-(pyridin-2-yloxy)cyclohexyl]-5,6-dihydro-4H-[1,2,4]triazolo[4,3-a][1]benzazepin-5-ol] the same measures were 0.3 nM, 469 nM, 1.1 nM and 91%.
For `O[C@@H]1Cc2cc(Cl)ccc2-n2c(nnc2[C@H]2CC[C@H](Oc3ccccn3)CC2)C1` [Example 57, (5R)-8-chloro-1-[trans-4-(pyridin-2-yloxy)cyclohexyl]-5,6-dihydro-4H-[1,2,4]triazolo[4,3-a][1]benzazepin-5-ol] the same measures were 0.3 nM, 446 nM, 1.8 nM and 84%.

A word on the Ki: it is the equilibrium dissociation constant of an inhibitor or competing ligand from its target. For orientation: IC50 means the concentration needed to halve the response being measured.
